According to ChEMBL document CHEMBL1201862, “PubChem BioAssay data set” (2004):
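96-well plates; 48 h exposure; 5 concentrations. Endpoints by linear interpolation between flanking doses. Not reached: highest tested concentration assigned. Abbreviation: GI50, concentration required for 50% inhibition of growth.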 Active and inactive are the calls of the source. Cut-off read from the data, not from the text of the source: active = GI50 up to about 1.1 µM and inactive = higher.

Columns and labels:
Assay in all cases: DTP human tumour cell line panel, 48 h
A498 = system: A498
HL-60 = system: HL-60
KM-20L2 = system: KM-20L2
MCF7 = system: MCF7
NCI/ADR-RES = system: NCI/ADR-RES
SF-539 = system: SF-539
SK-MEL-28 = system: SK-MEL-28
XF498 = system: XF498
ACHN = system: ACHN
LXFL 529 = system: LXFL 529
M14 = system: M14
SR = system: SR
TK-10 = system: TK-10

`Cc1c2ccncc2cc2c1[nH]c1ccccc12` was tested, and the GI50 (A498) was 0.804 µM (active), the GI50 (HL-60) was 3.41 µM (inactive) and the GI50 (KM-20L2) was 3.37 µM (inactive). The GI50 (MCF7) was 1.57 µM (inactive), the GI50 (NCI/ADR-RES) was 3.01 µM (inactive) and the GI50 (SF-539) was 2.48 µM (inactive). For the same compound, the GI50 (SK-MEL-28) was 3.85 µM (inactive) and the GI50 (XF498) was 1.12 µM (active).

In the case of `COc1nc2[nH]ccc2c(=O)[nH]1`, the GI50 (A498) is reported as > 100 µM (inactive), the GI50 (ACHN) is reported as > 100 µM (inactive) and the GI50 (HL-60) is reported as > 100 µM (inactive). The GI50 (KM-20L2) was > 100 µM (inactive), the GI50 (LXFL 529) was > 100 µM (inactive) and the GI50 (M14) was > 100 µM (inactive). For the same compound, the GI50 (SF-539) was > 100 µM (inactive), the GI50 (SK-MEL-28) was > 100 µM (inactive) and the GI50 (SR) was > 100 µM (inactive). For the same compound, the GI50 (TK-10) was > 100 µM (inactive).

For `COc1cc(C(=O)C/C(CCC(=O)Nc2ccc(Cl)cc2Cl)=N/NC(=O)C(=O)NN)ccc1O`, the GI50 (A498) was > 100 µM (inactive), the GI50 (ACHN) was > 100 µM (inactive) and the GI50 (HL-60) was > 100 µM (inactive). For the same compound, the GI50 (KM-20L2) was > 100 µM (inactive), the GI50 (LXFL 529) was > 100 µM (inactive) and the GI50 (M14) was > 100 µM (inactive). The GI50 (SF-539) was > 100 µM (inactive), the GI50 (SK-MEL-28) was > 100 µM (inactive) and the GI50 (TK-10) was > 100 µM (inactive). For the same compound, the GI50 (XF498) was > 100 µM (inactive).

For `COC1OC(=O)[C@H]2O[N+]([O-])=C(C)[C@@H]12` (some centres undefined), the GI50 (A498) was > 100 µM (inactive), the GI50 (HL-60) was > 100 µM (inactive) and the GI50 (KM-20L2) was > 100 µM (inactive). For the same compound, the GI50 (MCF7) was > 100 µM (inactive), the GI50 (NCI/ADR-RES) was > 100 µM (inactive) and the GI50 (SF-539) was > 100 µM (inactive). The GI50 (SK-MEL-28) was > 100 µM (inactive) and the GI50 (XF498) was > 100 µM (inactive).

With `Cc1ccc([N+](=O)[O-])cc1NC(=O)C(=O)C(C(=O)c1ccccc1F)C1OC(=O)c2ccccc21` (centres undefined) the GI50 (A498) was 98.4 µM (inactive), the GI50 (ACHN) was 62.2 µM (inactive) and the GI50 (HL-60) was 26.9 µM (inactive). For the same compound, the GI50 (KM-20L2) was 34.6 µM (inactive), the GI50 (LXFL 529) was 34 µM (inactive) and the GI50 (M14) was 66.8 µM (inactive). The GI50 (SF-539) was 24.5 µM (inactive), the GI50 (SK-MEL-28) was 36.4 µM (inactive) and the GI50 (SR) was 30.3 µM (inactive). The GI50 (TK-10) was > 100 µM (inactive) and the GI50 (XF498) was 81.5 µM (inactive).

`NC1CCCCC1.O=P(O)(O)C(CSc1ccccc1)P(=O)(O)O` was tested, and the GI50 (A498) was > 100 µM (inactive), the GI50 (HL-60) was > 100 µM (inactive) and the GI50 (KM-20L2) was > 100 µM (inactive). The GI50 (MCF7) was > 100 µM (inactive), the GI50 (NCI/ADR-RES) was > 100 µM (inactive) and the GI50 (SF-539) was > 100 µM (inactive). The GI50 (SK-MEL-28) was > 100 µM (inactive) and the GI50 (XF498) was > 100 µM (inactive).

For `N#CC1(CCCI)CCCC1`, the GI50 (A498) was 35.9 µM (inactive), the GI50 (ACHN) was 21.4 µM (inactive) and the GI50 (HL-60) was 6.1 µM (inactive). The GI50 (KM-20L2) was 22.6 µM (inactive), the GI50 (LXFL 529) was 23.2 µM (inactive) and the GI50 (M14) was 5.83 µM (inactive). The GI50 (SF-539) was 15.5 µM (inactive), the GI50 (SK-MEL-28) was 16.5 µM (inactive) and the GI50 (SR) was 15.4 µM (inactive). For the same compound, the GI50 (TK-10) was 41.9 µM (inactive) and the GI50 (XF498) was 18.6 µM (inactive).

For `COc1ccc(C2COc3cc(O)c(O)cc3C2)cc1` (centres undefined), the GI50 (A498) was 9.84 µM (inactive), the GI50 (HL-60) was 1.58 µM (inactive) and the GI50 (KM-20L2) was 76.2 µM (inactive). The GI50 (MCF7) was 37.2 µM (inactive), the GI50 (NCI/ADR-RES) was 11 µM (inactive) and the GI50 (SF-539) was 30.1 µM (inactive). For the same compound, the GI50 (SK-MEL-28) was 10.7 µM (inactive) and the GI50 (XF498) was 7.28 µM (inactive).
